Experimental data: publication PMC9533862 (Antiviral Research, 2010)
Several values for one entry are separate records, joined by “and”; a condition that tells them apart may be missing. Identical values can stand only once. Like-named read-outs stand apart in the source and are kept apart here.

Legend:
[1] = tested on: vaccinia virus DNA replication; type: cell-based
myxoma virus = type: cell-based; conditions: HeLa cells, 2 μM, MOI 0.1
[2] = tested on: vaccinia virus (strain Copenhagen); type: cell-based
[3] = tested on: Plasmodium vinckei petteri; conditions: mice; ref Adovelande and Schrevel, 1996; cited from earlier work
[4] = tested on: vaccinia virus (strain Copenhagen); type: cell-based; conditions: 0.2 μM
[5] = tested on: vaccinia virus (strain Copenhagen); type: cell-based; conditions: 0.2 μM; remark: listed apart in the source
[6] = tested on: vaccinia virus Western Reserve (WR) strain; experiment: microbe, parasite or virus in culture; type: cell-based
[7] = tested on: vaccinia virus (strain Copenhagen); experiment: microbe, parasite or virus in culture; type: cell-based
[8] = tested on: vaccinia virus gene transcription (D12, A1, A17); type: cell-based; conditions: 2 μM
[9] = tested on: vaccinia virus protein expression (D12, G8, H3); type: cell-based; conditions: 2 μM
HeLa cells = conditions: HeLa cell monolayers; 24 h incubation; WST-1
in vitro = conditions: human, CC50, HeLa cell monolayers; 24 h incubation; WST-1
vaccinia virus = conditions: previously reported against vaccinia; ref Yang et al., 2005; cited from earlier work

Nc1ccn([C@@H]2O[C@H](CO)[C@@H](O)[C@@H]2O)c(=O)n1 [araC, cytosine arabinoside]
abundance of the A1 gene at 8 hpi (viral DNA replication) ([1]; 50 μg/mL): no significant increase in the abundance of the A1 gene

CO[C@@H]1C[C@@H](C[C@H]2CC[C@H](C)[C@H]([C@@H](C)C(=O)O)O2)O[C@]2(O[C@](C)([C@H]3CC[C@@](C)([C@@H]4O[C@@H]([C@H]5O[C@@](O)(CO)[C@H](C)C[C@@H]5C)C[C@@H]4C)O3)C[C@H]2C)[C@@H]1C [Nigericin]
reduction in virus titres (myxoma virus): 676 fold | reduction of virus replication, compound added 4 hpi [2]: ~1600 fold | vaccinia replication after removal of compound at 1 hpi [2]: vaccinia replication approached the level of untreated controls | decrease in viral titres ([2]; 0.2 μM): ~10 fold | dosages at which toxicity was observed [3]: above 10 mg kg^−1 | abundance of the A1 gene at 8 hpi (viral DNA replication) ([1]; 2 μM): no significant increase in the abundance of the A1 gene | decrease in viral titres [4]: ~10 fold | decrease in viral titres [5]: ~10 fold | Selectivity index [6]: 421 (WR) | IC50 ([6]; Vaccinia virus Western Reserve, HeLa): ~0.0195 µM | Selectivity index [7]: 1038 (Cop) | IC50 ([7]; Orthopoxvirus vaccinia, HeLa): ~0.0079 µM | reduction of A1 (intermediate) transcript expression [8]: ~94% | reduction of A17 (late) transcript expression [8]: ~98% | reduction of D12 (early) transcript expression [8]: ~82% | D12 (early) protein expression [9]: partially inhibited | G8 (intermediate) protein expression [9]: very little G8 detected | H3 (late) protein expression [9]: unable to detect H3 protein

C/C=C/[C@H]1O[C@@](O)([C@@H](C)[C@H](O)[C@H](C)[C@H]2OC(=O)/C(OC)=C/C(C)=C/[C@@H](C)[C@@H](O)[C@@H](C)[C@@H](O)[C@H](C)C/C(C)=C/C=C/[C@@H]2OC)C[C@@H](O[C@H]2C[C@@H](O)[C@H](OC(N)=O)[C@@H](C)O2)[C@@H]1C [Concanamycin B]
CC50 (HeLa cells): 21.4 ± 0.6 µM | IC50 [7]: ~0.011 µM and 0.011 µM

O=C(NN1C(=O)[C@@H]2[C@@H]3C=C[C@@H]([C@H]4C[C@@H]34)[C@@H]2C1=O)c1ccc(C(F)(F)F)cc1 [ST-246]
reduction in virus titres [2]: approximately 7.4 fold | CC50 (in vitro): > 1000 µM | IC50 (vaccinia virus): 0.01 µM | IC50 ([7]; Orthopoxvirus vaccinia, HeLa): ~0.0094 µM

C/C=C/[C@H]1O[C@@](O)([C@@H](C)[C@H](O)[C@H](C)[C@H]2OC(=O)/C(OC)=C/C(C)=C/[C@@H](C)[C@@H](O)[C@@H](CC)[C@@H](O)[C@H](C)C/C(C)=C/C=C/[C@@H]2OC)C[C@@H](O[C@H]2C[C@@H](O)[C@H](O)[C@@H](C)O2)[C@@H]1C [Concanamycin C]
CC50 (HeLa cells): 15.6 ± 3.2 µM | IC50 [7]: ~0.0028 µM and 0.0028 µM

Nc1ccn(C[C@@H](CO)OCP(=O)(O)O)c(=O)n1 [Cidofovir]
reduction in virus titres [2]: no effect on vaccinia replication | CC50 (in vitro): > 1000 µM | IC50 ([7]; Orthopoxvirus vaccinia, HeLa): ~110 µM

CC[C@@]1([C@@H]2O[C@@H]([C@H]3O[C@@](O)(CO)[C@H](C)C[C@@H]3C)C[C@@H]2C)CC[C@H]([C@]2(C)CC[C@]3(C[C@H](O)[C@@H](C)[C@@H]([C@@H](C)[C@@H](OC)[C@H](C)C(=O)O)O3)O2)O1 [Monensin]
reduction in virus titres [2]: approximately 20 fold | CC50 (in vitro): 23 ± 2.9 µM | Selectivity index [7]: 1065 | IC50 ([7]; Orthopoxvirus vaccinia, HeLa): ~0.0216 µM

C/C=C/[C@H]1O[C@@](O)([C@@H](C)[C@H](O)[C@H](C)[C@H]2OC(=O)/C(OC)=C/C(C)=C/[C@@H](C)[C@@H](O)[C@@H](CC)[C@@H](O)[C@H](C)C/C(C)=C/C=C/[C@@H]2OC)C[C@@H](O[C@H]2C[C@@H](O)[C@H](OC(N)=O)[C@@H](C)O2)[C@@H]1C [Concanamycin A]
CC50 (in vitro): 13.5 ± 5.7 µM | Selectivity index [7]: 7941 | IC50 ([7]; Orthopoxvirus vaccinia, HeLa): ~0.0017 µM
